Measurements reported in patent US11542266B1, “Substituted piperidines as BTK inhibitors” (HAISCO PHARMACEUTICALS PTE. LTD., priority 2019, dated 2023).

Experiments:
BTK protein = BTK protein (Mus musculus (Mouse), UniProt P35991); assay: Detection of BTK protein degradation in spleen of mice; assay type: in vivo; details: po, 72 h, female ICR mice, 3 consecutive days of intragastric administration, read-out: DD50 value of compounds on BTK protein degradation in spleen of mice
Procedure: Female ICR mice, 6-8 weeks old, were purchased from BEIJING VITAL RIVER LABORATORY ANIMAL TECHNOLOGY CO., LTD, and the experiment was started after 3 days of adaptation. After 3 consecutive days of intragastric administration of different doses of the compound, the spleen of mice was taken, the spleen cells were collected, and RIPA lysis buffer (Beyotime, Cat. P0013B) was added. The cells were lysed on ice for 15 minutes, and centrifuged at 12000 rpm at 4° C. for 10 minutes. The protein sample of the supernatant was collected, and the protein was quantified by using the BCA kit (Beyotime, Cat. P0009), and then the protein was diluted to 0.25 mg/mL. The expressions of BTK (CST, Cat. 8547S) and the internal reference β-actin (CST, Cat. 3700S) were detected using a fully automated western blot quantitative analyzer (Proteinsimple). The expression level of BTK relative to the internal reference was calculated using Compass software, and the DD50 value was calculated using Origen9.2 software according to formula (4). Specifically, the BTKadministration denoted the expression level of BTK in administration groups at different doses, and the BTKvehicle denoted the expression level of BTK in the vehicle control group. BTK %=BTKadministration/BTKvehicle×100 formula (4)

SU-DHL-4 cells = assay: Inhibition of cell proliferation, SU-DHL-4 cells (Cell Viability Assay, 72 h); assay type: cell-based, human; details: Homo sapiens
Procedure, shortened: (§1)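 RPMI1640 + 10% FBS cultures seeded at 20000/well (SU-DHL-4) or 5000/well (Mino, SU-DHL-6), exposed to compound dilutions in triplicate for 72 h at 37 °C, 5% CO2, DMSO vehicle control. Viability read by luminescent reagent; IC50 from dose-response and Max inhi. % = (1 − T72 treated/T72 vehicle)×100 at top concentration.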

Mino cells = assay: Inhibition of cell proliferation, Mino cells (Cell Viability Assay, 72 h); assay type: cell-based, human; details: Homo sapiens
Procedure, shortened: as §1

SU-DHL-6 cells = assay: Inhibition of cell proliferation, SU-DHL-6 cells (Cell Viability Assay, 72 h); assay type: cell-based; details: Homo sapiens
Procedure: SU-DHL-4, Mino, and SU-DHL-6 cells, in the culture medium of RPMI1640+10% FBS, were cultured in an incubator at 37° C. under 5% CO2. Cells were plated in a 96-well plate. Specifically, SU-DHL-4 cells were at 20000/well, Mino and SU-DHL-6 cells were at 5000/well, with 90 μL/well. 10 μL of the compounds at different concentrations were added to each well. There were 3 replicate wells for each concentration, and the last column, added with DMSO, was used as a vehicle control group. The cultures were continued for 72 hours at 37° C. under 5% CO2. After 72 hours, 100 μL of detection reagent (Cell Viability Assay, Promega, G7573) was added to each well, and the cultures were uniformly mixed for 2 minutes, and incubated at room temperature for 10 minutes. The fluorescence signal value was measured with a microplate reader (PHERAstar FSX). The IC50 value of the compound on cell proliferation inhibition was calculated using Origin 9.2 software, and the inhibition rate at the highest concentration of the compound (Max inhi. %) was calculated according to formula (1). Max inhi. %=(1-T72 administration/T72 vehicle)×100 Formula (1).

OCI-LY10 cells = assay: Inhibition of cell proliferation, OCI-LY10 cells (Cell Viability Assay, 72 h); assay type: cell-based; details: Homo sapiens
Procedure: (§2) OCI-LY10 and TMD-8 cells, in the culture medium of RPMI1640+10% FBS, were cultured in an incubator at 37° C. under 5% CO2. Cells were plated in a 96-well plate. Specifically, OCI-LY10 cells were at 10000/well, and TMD-8 cells were at 8000/well, with 90 μL/well. These cells were cultured at 37° C. under 5% CO2 overnight. On the next day, 10 μL of the compounds at different concentrations were added to each well. There were 3 replicate wells for each concentration, and the last column, added with DMSO, was used as a vehicle control group. The cultures were continued for 72 hours at 37° C. under 5% CO2. After 72 hours, 50 μL of detection reagent (Cell Viability Assay, Promega, G7573) was added to each well, and the cultures were uniformly mixed for 2 minutes, and incubated at room temperature for 10 minutes. The fluorescence signal value was measured with an Envision2104 plate reader (PerkinElmer). The inhibition rate was calculated using formula (2), wherein RLUcompound was the readout of the drug treated group, RLUcontrol was the average value of the vehicle control group, and RLUblank was the average value of the cell-free wells. The IC50 value was calculated using GraphPad Prism software. IR (%)=(1−(RLUcompound-RLUblank)/(RLUcontrol-RLUblank))*100% formula (2)

[1] = Pharmacokinetic experiment in rats (i.g. vehicle 0.5% MC); assay type: in vivo; details: Sprague-Dawley (SD), rat, po, male SD rats, plasma; for AUC(0-t): i.g. 20 mg/kg, vehicle 0.5% MC, read-out: AUC0-t; for bioavailability: i.g. 20 mg/kg (0.5% MC) vs i.v. 5 mg/kg
Procedure, shortened: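 Male SD rats (200–250 g, 6–8 weeks, n=6 per compound) were dosed once i.v. or intragastrically after a 12–14 h fast and fed 4 h post-dose. Orbital blood was drawn into EDTA-K2 tubes at 0–24 h (from 5 min i.v., from 15 min oral). Plasma was quantified by LC-MS/MS for PK parameters and bioavailability.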

TMD-8 cells = assay: Inhibition of cell proliferation, TMD-8 cells (Cell Viability Assay, 72 h); assay type: cell-based; details: Homo sapiens, TMD8
Procedure: as §2

[2] = Pharmacokinetic experiment in rats (i.g. vehicle DMSO/Solutol/PEG-400/SBE-β-CD); assay type: in vivo; details: Sprague-Dawley (SD), rat, plasma, po, male SD rats; for bioavailability: i.g. 20 mg/kg (DMSO/Solutol/PEG-400/SBE-β-CD) vs i.v. 5 mg/kg; for AUC(0-t): i.g. 20 mg/kg, vehicle 5% DMSO + 5% Solutol + 30% PEG-400 + 60% (20%SBE-β-CD)
Procedure: Objective: In this experiment, a single dose of each test compound was administered to SD rats intravenously and intragastrically, the concentrations of the test compound in plasma of rats were measured, and the pharmacokinetic characteristics and bioavailability of the test compound in rats were evaluated.
Experimental animals: Male SD rats, 200-250 g, 6-8 weeks old, 6 rats/compound. The experimental animals were purchased from CHENGDU DOSSY EXPERIMENTAL ANIMALS CO., LTD.
Experimental method: On the day of the experiment, 6 SD rats were randomly grouped according to their body weight. The animals were fasted with water available for 12 to 14 hours one day before the administration of a test compound, and were fed 4 hours after the administration.
Sampling: Before and after the administration, 0.1 mL of blood was taken from the orbit of the rats under isoflurane anesthesia, and placed in an EDTAK2 centrifuge tube. Centrifugation was carried out at 5000 rpm at 4° C. for 10 min and the plasma was collected.
Time points for plasma collection in G1 group: 0, 5 min, 15 min, 30 min, 1 h, 2 h, 4 h, 6 h, 8 h, and 24 h.
Time points for plasma collection in G2 group: 0, 15 min, 30 min, 1 h, 2 h, 4 h, 6 h, 8 h, and 24 h.
Before analysis and detection, all samples were stored at −80° C. The samples were analyzed quantitatively by LC-MS/MS.

Chain of BTK protein (P35991 whole entry): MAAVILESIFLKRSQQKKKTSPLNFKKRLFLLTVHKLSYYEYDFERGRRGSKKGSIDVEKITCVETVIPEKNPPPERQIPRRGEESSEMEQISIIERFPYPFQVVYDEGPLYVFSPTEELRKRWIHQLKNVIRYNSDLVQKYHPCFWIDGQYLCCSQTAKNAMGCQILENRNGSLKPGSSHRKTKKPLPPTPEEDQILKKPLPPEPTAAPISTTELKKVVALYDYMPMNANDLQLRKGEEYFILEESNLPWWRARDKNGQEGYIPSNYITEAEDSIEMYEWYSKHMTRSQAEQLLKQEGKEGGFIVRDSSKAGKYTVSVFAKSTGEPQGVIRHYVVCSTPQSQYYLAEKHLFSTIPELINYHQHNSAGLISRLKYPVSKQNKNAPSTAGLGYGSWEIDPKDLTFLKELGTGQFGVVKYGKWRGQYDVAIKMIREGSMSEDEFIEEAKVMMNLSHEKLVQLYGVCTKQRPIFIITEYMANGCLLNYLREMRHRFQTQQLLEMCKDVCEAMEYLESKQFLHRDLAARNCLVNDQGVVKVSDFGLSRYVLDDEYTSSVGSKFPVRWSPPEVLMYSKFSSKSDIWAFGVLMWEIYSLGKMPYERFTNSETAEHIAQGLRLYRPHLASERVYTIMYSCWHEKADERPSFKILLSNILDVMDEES

## Nc1ncnc2c1c(-c1ccc(Oc3ccccc3)cc1)nn2C1CCN(C2CN(C3CN(c4ccc5c(c4)C(=O)N([C@@H]4CCC(=O)NC4=O)C5=O)C3)C2)CC1 [Compound 17-a, 5-[3-[3-[4-[4-amino-3-(4-phenoxyphenyl)pyrazolo[3,4-d]pyrimidin-1-yl]-1-piperidyl]azetidin-1-yl]azetidin-1-yl]-2-[(3R)-2,6-dioxo-3-piperidyl]isoindoline-1,3-dione]
BTK protein
  ED50: 19.8 mg/kg
SU-DHL-4 cells
  IC50: 481 nM
Mino cells
  IC50: 8 nM
SU-DHL-6 cells
  IC50: 524 nM

## Nc1ncnc2c1c(-c1ccc(Oc3ccccc3)cc1)nn2C1CCN(C2CCN(C3CN(c4ccc5c(c4)C(=O)N(C4CCC(=O)NC4=O)C5=O)C3)CC2F)CC1 (stereo not drawn) [Compound 18-1, cis-5-(3-(4-(4-amino-3-(4-phenoxyphenyl)-1H-pyrazolo[3,4-d]pyrimidin-1-yl)-3′-fluoro-[1,4′-bipiperidin]-1′-yl)azetidin-1-yl)-2-(2,6-dioxopiperidin-3-yl)isoindoline-1,3-dione]
BTK protein
  ED50: 1.9 mg/kg
OCI-LY10 cells
  IC50: 4 nM
SU-DHL-4 cells
  IC50: 20 nM
Mino cells
  IC50: 18 nM
SU-DHL-6 cells
  IC50: 29 nM
[1]
  AUC(0-t): 218 ± 68 ng·h/mL
TMD-8 cells
  IC50: 8 nM

## Nc1ncnc2c1c(-c1ccc(Oc3ccccc3)cc1)nn2C1CCN(C2CN(C3CN(c4ccc5c(c4)C(=O)N(C4CCC(=O)NC4=O)C5=O)C3)C2)CC1F (stereo not drawn) [Compound 19-1, trans-5-(3-(4-(4-amino-3-(4-phenoxyphenyl)-1H-pyrazolo[3,4-d]pyrimidin-1-yl)-3-fluoropiperidin-1-yl)-[1,3′-biazetidin]-1′-yl)-2-(2,6-dioxopiperidin-3-yl)isoindoline-1,3-dione]
OCI-LY10 cells
  IC50: 23 nM
SU-DHL-4 cells
  IC50: 394 nM
[1]
  AUC(0-t): 1260 ± 117 ng·h/mL
TMD-8 cells
  IC50: 14 nM

## Nc1ncnc2c1c(-c1ccc(Oc3ccccc3)cc1)nn2C1CCN(C2CCN(C3CN(c4ccc5c(c4)C(=O)N(C4CCC(=O)NC4=O)C5=O)C3)CC2)CC1 (centres unmarked) [Compound 8-1, 5-(3-(4-(4-amino-3-(4-phenoxyphenyl)-1H-pyrazolo[3,4-d]pyrimidin-1-yl)-[1,4′-bipiperidin]-1′-yl)azetidin-1-yl)-2-(2,6-dioxopiperidin-3-yl)isoindoline-1,3-dione]
BTK protein
  ED50: 3.8 mg/kg

## Nc1ncnc2c1c(-c1ccc(Oc3ccccc3)cc1)nn2[C@@H]1CCN(C2CCN(C3CN(c4ccc5c(c4)C(=O)N(C4CCC(=O)NC4=O)C5=O)C3)CC2)C[C@@H]1F (stereo partly drawn) [Compound 45, 5-(3-((3S,4R)-4-(4-amino-3-(4-phenoxyphenyl)-1H-pyrazolo[3,4-d]pyrimidin-1-yl)-3-fluoro-[1,4′-bipiperidin]-1′-yl)azetidin-1-yl)-2-(2,6-dioxopiperidin-3-yl)isoindoline-1,3-dione]
BTK protein
  ED50: 1.4 mg/kg
OCI-LY10 cells
  IC50: 3 nM
[2]
  bioavailability: 19.7 ± 8.5%
  AUC(0-t): 3440 ± 1490 ng·h/mL
SU-DHL-4 cells
  IC50: 110 nM
Mino cells
  IC50: 9.6 nM
SU-DHL-6 cells
  IC50: 125 nM
TMD-8 cells
  IC50: 16 nM

## Nc1ncnc2c1c(-c1ccc(Oc3ccccc3)cc1)nn2[C@@H]1CCCN(C(=O)c2cn(CCOCCOCCOCCNc3cccc4c3C(=O)N(C3CCC(=O)NC3=O)C4=O)nn2)C1 (some centres unmarked) [Compound P13I, reference compound]
OCI-LY10 cells
  IC50: 29 nM
[2]
  bioavailability: 0%
SU-DHL-4 cells
  IC50: 1180 nM
Mino cells
  IC50: 844 nM
SU-DHL-6 cells
  IC50: 1640 nM
[1]
  bioavailability: 0%
TMD-8 cells
  IC50: 104 nM

## Nc1ncnc2c1c(-c1ccc(Oc3ccccc3)cc1)nn2C1CCN(C2CN(C3CN(c4ccc5c(c4)C(=O)N([C@H]4CCC(=O)NC4=O)C5=O)C3)C2)CC1 [Compound 17-b, 5-[3-[3-[4-[4-amino-3-(4-phenoxyphenyl)pyrazolo[3,4-d]pyrimidin-1-yl]-1-piperidyl]azetidin-1-yl]azetidin-1-yl]-2-[(3S)-2,6-dioxo-3-piperidyl]isoindoline-1,3-dione]
BTK protein
  ED50: 2.2 mg/kg
SU-DHL-4 cells
  IC50: 460 nM
Mino cells
  IC50: 7.2 nM
SU-DHL-6 cells
  IC50: 662 nM

## Nc1ncnc2c1c(-c1ccc(Oc3ccccc3)cc1)nn2[C@H]1CCN(C2CN(C3CN(c4ccc5c(c4)C(=O)N(C4CCC(=O)NC4=O)C5=O)C3)C2)C[C@@H]1F (stereo partly drawn) [Compound 43, 5-[3-[3-[(3S,4S)-4-[4-amino-3-(4-phenoxyphenyl)pyrazolo[3,4-d]pyrimidin-1-yl]-3-fluoro-1-piperidyl]azetidin-1-yl]azetidin-1-yl]-2-(2,6-dioxo-3-piperidyl)isoindoline-1,3-dione]
[2]
  bioavailability: 11 ± 2.2%
  AUC(0-t): 4500 ± 886 ng·h/mL
SU-DHL-4 cells
  IC50: 330 nM
Mino cells
  IC50: 10 nM
SU-DHL-6 cells
  IC50: 407 nM

## Nc1ncnc2c1c(-c1ccc(Oc3ccccc3)cc1)nn2C1CCN(C2CCN(C3CN(c4ccc5c(c4)C(=O)N(C4CCC(=O)NC4=O)C5=O)C3)CC2)CC1 (centres unmarked) [Compound 8, 5-(3-(4-(4-amino-3-(4-phenoxyphenyl)-1H-pyrazolo[3,4-d]pyrimidin-1-yl)-[1,4′-bipiperidin]-1′-yl)azetidin-1-yl)-2-(2,6-dioxopiperidin-3-yl)isoindoline-1,3-dione tritrifluoroacetate]
OCI-LY10 cells
  IC50: 3 nM
SU-DHL-4 cells
  IC50: 255 nM
Mino cells
  IC50: 309 nM
SU-DHL-6 cells
  IC50: 399 nM
[1]
  bioavailability: 11.8 ± 4.4%
  AUC(0-t): 634 ± 238 ng·h/mL
TMD-8 cells
  IC50: 22 nM
